Source: paper PMC9061853, “Luminescent bis(benzo[d]thiazolyl)quinoxaline: facile synthesis, nucleic acid and protein BSA interaction, live-cell imaging, biopharmaceutical research and cancer theranostic application” (RSC Advances, 2019)

Experiments:
Caco-2 = test: MTT cytotoxicity assay, Caco-2; type: cell-based, human; conditions: Homo sapiens, Caco-2; 72 h incubation
Description: (§1) In vitro cytotoxic activities (MTT assay):
(§2) The basic detection of cytotoxicity of anticancer compounds in vitro is MTT assay. The MTT proliferation assay is based on the reduction of the yellow MTT tetrazolium salt (3-[4,5-dimethylthiazol-2-yl]-2,5diphenyltetrazolium bromide) by mitochondrial dehydrogenases to form a purple MTT formazan crystals in viable cells. Synthesized compounds (7a-g) were prior dissolved in 0.1% DMSO and then serial dilution with medium and used in the experiment. Three different types of cancer cell lines were used in this experiment i.e., human Epitheloid Cervix Carcinoma (HeLa), human colon cancer cell line (Caco-2) and one normal kidney cell (HEK-293) were used in the assay. The cells were harvested at the log phase and it is cell counted using haemocytometer. Approximately 1 × 10^3 cells per well were seeded using all the cell lines. They were cultured in 100 μL of a DMEM media in 96-well plates and incubated at 37 °C for 24 hours under a 5% CO2 atmosphere. The cells were then washed with 1X PBS buffer and fresh media was added to the cells. The cells were then treated with different concentrations of the drugs (0.65-150 µM) in the volume of […] /well.
(§3) The control wells contains the same cell count of 1 × 10^3 cells per well of 100 μL medium containing 0.1% DMSO. After 24 h (for HeLa cell and HEK-293) and 72 h (for Caco-2), the medium was discarded and it is washed with 1X PBS and it was incubated with 100 µl of MTT reagent (1 mg/ml) for 4 h at 37°C.
(§4) Then the 96 well plate was placed on the shaker for 10 min and subsequently the absorbance was recorded by the ELISA reader at λ = 490 nm. The experiments were performed in […]
(§5) triplicate. […]

[1] = MTT cytotoxicity assay, Caco-2; type: cell-based, human; conditions: human, Caco-2, ratio of IC50 for HEK-293 to IC50 for Caco-2; read-out: SF (selectivity factor) Caco-2
Description: as §1, §2, §3, §4, §5

HEK-293 = test: MTT cytotoxicity assay, HEK-293 normal cells; type: cell-based, human; conditions: Homo sapiens, HEK293; 24 h incubation
Experimental: (§6) Cytotoxicity studies were performed for all the synthesized quinoxaline compounds (7a–7g) using standard 3-(4,5-dimethylthiazol-2-yl)-2,5-diphenyltetrazolium bromide (MTT) assay beside a panel of cancer cell lines such as human epithelioid cervix carcinoma (HeLa), human colorectal adenocarcinoma cell line (Caco-2) and one normal human embryonic kidney cells (HEK-293) in triplicates (Table 3). […] It is noteworthy to mention that Compound 7a and 7g presented best cytoselectivity in HeLa and Caco-2 cell lines respectively. […]
as §1
as §2, with “[…]. Cisplatin has been used as a standard positive control drug. The control wells contains the same cell count of 1 × 10^3 cells per well of 100 μL medium containing 0.1% DMSO. After 24 h (for HeLa cell and HEK-293) and 72 h (for Caco-2), the medium was discarded and it is washed with 1X PBS and it was incubated with 100 µl of MTT reagent (1 mg/ml) for 4 h at 37°C.” for “/well.”
as §4, §5

HeLa = test: MTT cytotoxicity assay, HeLa; type: cell-based, human; conditions: for IC50: Homo sapiens, HeLa, 24 h incubation; for SF (selectivity factor) HeLa: ratio of IC50 for HEK-293 to IC50 for HeLa
Experimental: as §6, §1
as §2, with “[…]. Cisplatin has been used as a standard positive control drug. The control wells contains the same cell count of 1 × 10^3 cells per well of 100 μL medium containing 0.1% DMSO. After 24 h (for HeLa cell and HEK-293) and 72 h (for Caco-2), the medium was discarded and it is washed with 1X PBS and it was incubated with 100 µl of MTT reagent (1 mg/ml) for 4 h at 37°C.” for “/well.”
as §4, §5

[2] = Fluorescence quantum yield in water; type: physicochemical; conditions: 298 K, quinine sulphate as standard
Experimental: To know the absorption and emission behaviour of these synthesized compounds (7a–g), a standard concentration (3 × 10^−6 mol l^−1) in water has been used. In UV-vis spectra, λmax of all these compounds are observed at 320–330 nm due to π–π* transition (Fig. S1a ^†). The corresponding emission peaks are observed at 400–500 nm (Fig. S1b ^†). The emission of quantum yield (Φ) was calculated for all of the compounds (7a–g) using eqn (1) (Table S1 ^†). […]
2.6.2. Fluorescence study:
To know the emission property of all the synthesized complexes (7a-g), an initial investigation was performed using spectrofluorometric method in water by using absorption maximum as their excitation energy. Fluorescence quantum yield (Ф) of all the prepared compounds performed in water solution were calculated by employing the comparative William's method which involves the use of well-characterized standard with the known quantum yield value. Quinine sulphate was used as reference fluorophore excited at 350 nm and emission at 452 nm, quantum yield (ФR) = 0.50 in 1N H2SO4. The gradients of the plots are proportional to the quantum yield (Ф) of the studied system. The data obtained and quantum yield value calculated according to the equation (2): […]
Where, φ = Quantum yield, I = Peak Area, OD = absorbance at λmax, η = Refractive index of solvent and reference. Here, we have used Quinine Sulphate as a standard for calculating emission of quantum yield. […]

Compound	IC50 (Caco-2) [µM]	selectivity ratio [1]	melting point [°C]	IC50 (HEK-293) [µM]	IC50 (HeLa) [µM]	SF (selectivity factor) HeLa (HeLa)	Φ, emission quantum yield [2]
Clc1cc2nc(COc3ccccc3-c3nc4ccccc4s3)c(COc3ccccc3-c3nc4ccccc4s3)nc2cc1Cl [Compound 7e]	20.9 ± 1.6	> 9	145 to 150	> 200	38.9 ± 0.1	>5.1	0.04
COc1ccc2nc(COc3ccccc3-c3nc4ccccc4s3)c(COc3ccccc3-c3nc4ccccc4s3)nc2c1 [Compound 7g, 2,2'-((((6-methoxyquinoxaline-2,3-diyl)bis(methylene))bis(oxy))bis(2,1-phenylene))bis(benzo[d]thiazole)]	20.8 ± 1.6	> 9	155 to 160	> 200	36.8 ± 0.2	>5.4	0.013
